For assay [1], the system named is DKO mice (Pten−/−;Sav1−/−). In words: MK-2206 treatment of 3-week-old DKO mice for 2 weeks (fatty liver). In kind it is in vivo, mouse. The following applies: 66 mg/kg i.p. every other day for 2 weeks, vs vehicle. The method, then: (§1) Adenovirus for overexpression of CRE, YAP5SA, TAZ4SA, or GFP (control) and AAV-saCas9-sgIrs2 or sgCtl in the mouse liver were injected into the tail vain of […], respectively. The mice were deprived of food for 16 hours at day 4 (YAP5SA, TAZ4SA, and GFP) or week 4 (CRE and GFP) after adenovirus injection. MK-2206 (Selleckchem; S1078) was prepared in 30% Captisol (CyDex Pharmaceuticals; RC-0C7) and administered to DKO mice by intraperitoneal injection at a dose of 66 mg/kg every other day for 2 weeks, beginning at 3 or 12 weeks of age.
Given the lack of treatments for NASH, the present inventors next asked whether pharmacological inhibition of AKT could ameliorate fatty liver and slow cancer progression in DKO mice. To this end, the present inventors administered the pan-AKT inhibitor MK-2206 (phase II clinical trials) intraperitoneally to 3-week-old DKO mice.
FIGS. 8b to 8d are graphs of the result of liver-to-body weight ratio percentage, the analysis of liver enzymes in the serum, the qPCR analysis of lipogenesis-related gene expression in the liver of control (white bars) and MK-2206 (red bars), respectively.

Assay [2] relates to DKO mice (Pten−/−;Sav1−/−). In words: MK-2206 treatment of 12-week-old DKO mice for 2 weeks (liver cancer). In kind it is in vivo, mouse. The method, then: as §1
Further, to investigate the suppression of liver cancer, MK-2206 was injected to 12-week-old DKO mice that 80% of them had liver tumor (FIG. 1b). The graphs of FIG. 8f are the result of the result of liver-to-body weight ratio (F), liver tumor number and size (G), serum analysis (H) of the experiment shown in FIG. 8f. The graph representing the quantification analysis of Ki-67^+ hepatocytes of specimen is shown in FIG. 8h, and a graph representing the qPCR analysis of the expression of genes related to fibrosis (Acta2, desmin, and Tgfb), cell death or injury (Hmox1 and Gadd153), or inflammation (Tnfa) is shown in FIG. 8i.

[3] abbreviates: 12-week-old DKO mice, 2 weeks treatment, vs vehicle.

From patent publication US11692222B2, “Animal model of non-alcoholic liver disease and composition of diagnosis, prevention or treatment for non-alcoholic liver disease” (KOREA ADVANCED INSTITUTE OF SCIENCE AND TECHNOLOGY, priority 2018, dated 2023) come the findings set out here.

On to `NC1(c2ccc(-c3nc4ccn5c(=O)[nH]nc5c4cc3-c3ccccc3)cc2)CCC1` [MK-2206], for which, in assay [1], the “expression of lipogenesis-related genes (Fasn, Acc1, Srebp1c), qPCR in liver” value is given as “lower expression of lipogenesis-related genes”; the “fatty liver (macroscopic, H&E, Oil red O)” value is listed as “less fatty liver”; the “liver fibrosis (Sirius red)” value is recorded as “reduced liver fibrosis”; the “liver function (liver enzymes in serum)” value is “improved liver function”. Also, the “liver weight (liver-to-body weight ratio)” value in assay [1] is “decreased liver weight”. Further, the “fatty liver and tumorigenesis” value in assay [2] (12-week-old DKO mice, 66 mg/kg i.p. every other day for 2 weeks, vs vehicle) was “reduced fatty liver and tumorigenesis”. Besides, in assay [2] (setting [3]), the Ki-67-positive cells entry is listed as “fewer Ki-67-positive cells”; the “YAP expression (IHC)” value is on record as “without a corresponding change in YAP expression”; the “expression of genes related to fibrosis (Acta2, desmin, Tgfb), cell death or injury (Hmox1, Gadd153) and inflammation (Tnfa), qPCR” value is on record as “reduced expression of genes related to fibrosis”; the “fibrosis (Picrosirius red)” value was “reduced fibrosis”. Moreover, in assay [2] (setting [3]), the “hepatocyte TAZ expression (IHC)” value is “lower levels of hepatocyte TAZ expression”, the “hepatocytes with excessive lipid droplets (H&E)” value is “fewer hepatocytes with excessive lipid droplets”, the liver color result is on record as “normalized liver color” and the “liver size (liver-to-body weight ratio)” value is reported as “reduced liver size”. Further, the tumor nodule size entry in assay [2] (setting [3]) is “reduction in tumor nodule size”. Moreover, the “development of NAFLD and liver cancer in DKO mice” value in assay [2] (overall conclusion, DKO mice treated from 3 or 12 weeks of age) was “markedly attenuates the development of NAFLD and liver cancer”.
